Test results reported in patent US12005265B2, “Compositions and methods to modulate cell activity” (THE ROCKEFELLER UNIVERSITY, priority 2014, dated 2024).

Tests used:
[1] = test system: N38 cells; experiment: Multiphoton chloride imaging (MQAE) of stably transfected N38 cells; assay type: cell-based, mouse
Description: Stably transfected cells were washed with Krebs-HEPES buffer 3 times then loaded with MQAE (N-(Ethoxycarbonylmethyl)-6-Methoxyquinolinium Bromide, 5 mM, Invitrogen) for 60 min at room temperature. […] Imaging was performed using LSM 510 NLO inverted multiphoton and confocal system (Zeiss) using a 40× objective with two photon excitation at 750 nm. […] Imaging was repeated in the presence of Ruthenium red (100 μM) (2 occasions for each condition). Images were analyzed using Image J software.

[2] = test system: αGFP-TRPV1; conditions: HEK cells transfected with αGFP-TRPV1; 2APB; vs 0.85-fold
Description: Transfected cells were washed three times in PBS then loaded with Fluo-4 3 μM (Invitrogen) in the presence of sulfinpyrazone 500 μM (Sigma) for 60 min at room temperature. Cells were washed again in PBS then incubated for 30 min in sulfinpyrazone in PBS. Cells were washed and then imaged in calcium imaging buffer. Imaging was performed using a Deltavision personal DV imaging system (Applied Precision, Issawaq, WA) equipped with a custom-made ceramic lens.

[3] = test system: HEK or N38 cells; experiment: Whole cell voltage clamp recordings of cultured HEK and N38 cells; assay type: cell-based; conditions: 2APB 200 μM, −60 mV
Description: Neurons expressing GFP were visualized using epifluorescence on an upright Zeiss Axioskop 2FS Plus microscope equipped with a Hamamatsu CCD camera. External solution contained (in mM): 140 NaCl, 2.8KCl, 2CaC2, 1 MgCl2, 1HEPES, 10 glucose, pH 7.4.
I-V relationships were obtained by measuring current responses to increasing 5 mV steps in the presence of 200 μM 2APB. Cells were held at −60 mV. Magnetic activation was applied by bringing a permanent magnet within 500 microns of the recorded cell for 5 seconds with a micromanipulator. Recordings were acquired with an Axopatch 200B amplifier, filtered to 2 kHz and digitized at 10 kHz (pClamp software, Molecular Devices). Data were analyzed using IGOR Pro (Wavemetrics) and NeuroMatic. (neuromatic.thinkrandom.com). Series resistance was monitored and not compensated for. If there was more than a 20% change in series resistance the recording was excluded.

[4] = test system: N38 cells; experiment: Effect of RF on pCREB and c-fos in N38 cells; assay type: cell-based, mouse; conditions: N38 cells expressing αGFP-TRPV1/GFP-ferritin
Description: Effect of RF or magnet on pCREB and cFos: 24 h prior to the study, cells were placed in 1% FBS medium at 32° C. to ensure minimal activation of TRPV1 and calcium dependent pathways. On the day of study, cells were incubated in 500 μl of calcium imaging buffer at room temperature (control) or in a RF field (31 mT) at room temperature. For magnet treatment, cells were treated with a static magnetic field (280 mT) for 5 seconds every 2 minutes for 1 hour at room temperature. After 60 min, the cells were placed on ice, the supernatant removed and cells lysed with RIPA buffer (40 μl, pCREB) or lysis buffer (100 μl Agilent Absolutely RNA microprep kit) and frozen at −80° C. until assay or RNA purification. Each study was repeated on 3 occasions each with 4 replicates. Control studies with N38 cells alone were performed on 2 occasions with 4 replicates.
Protein was isolated by lysis in RIPA buffer and centrifugation at 16000 rpm, 4° C. for 5 min before addition of 4× Laemelli buffer. Samples were denatured for 5 mins at 95° C. and frozen at −20° C. before assay. Samples (15 ul) were run on a 4-15% gel then transferred to PVDF membrane. Membranes were blocked (3% dried milk in TBST buffer) for 1 hour at room temperature then incubated in primary antibody (Phospho-CREB (Ser133) (87G3) Rabbit mAb (1:1000) or beta Actin Rabbit Ab (1:1000), Cell Signaling) in TBST overnight at 4 degrees. […]

[5] = test system: N38 cells; experiment: Calcium imaging of stably transfected N38 cells under RF or magnet; assay type: cell-based, mouse; conditions: N38 cells expressing αGFP-TRPV1/GFP-ferritin
Description: TRPV1 is a non-selective cation channel with relatively high permeability to divalent cations, particularly calcium (Ca2+>Mg2+>Na+K+Cs+)^55. […] Cells were washed again in PBS then incubated for 15-30 min in sulfinpyrazone in PBS. […] Images were acquired every 3 seconds for 3 minutes. […] Imaging was repeated in the presence of Ruthenium red (100 μM) (2 occasions for each condition). Images were analyzed using Image J software.
For studies to examine the effects of increasing RF or magnet field strength, to assess the effects of short RF treatment (10s) on calcium responses and to examine the kinetics of the calcium response, cells were loaded with FluoForte 20 μM (Enzo Life Sciences, Lorrach, Germany) in the presence of Pluronic F-127 (0.02% vol/vol) and sulfinpyrazone 500 μM. […] Imaging was performed as above with images acquired every second for 1 minute. Cells were imaged without treatment (4 occasions), before and during RF treatment at 31, 27 and 23 mT (4 occasions each), before and during application of a neodymium magnet at 280 or 130 mT (magnet 2 mm or 5 mm from the cells respectively, 4 occasions each) and before, during and after 10 second treatment with RF (31 mT) (4 occasions). Images were analyzed using Image J software.

[6] = N38 cells stably transfected with αGFP-TRPV1^Mutant/GFP-ferritin

SMILES	level of intracellular chloride measured by MQAE quenching [1, 6]	change in Fluo-4 fluorescence (intracellular calcium) [2] [fold]	current induced by TRPV1 agonist ([3]; HEK cell expressing αGFP-TRPV1/GFP-ferritin)	current induced by TRPV1 agonist ([3]; HEK cell expressing αGFP-TRPV1^Mutant/GFP-ferritin)	effect on RF-induced increase of pCREB and c-fos [4]	effect on magnet-induced increase of intracellular chloride ([1]; N38 cells expressing αGFP-TRPV1^Mutant/GFP-ferritin)	effect on 2APB-induced increase of intracellular chloride [1, 6]	effect on RF-induced rise of intracellular calcium [5]	effect on magnet-induced increase of intracellular calcium [5]
NCCOB(c1ccccc1)c1ccccc1 [2APB, 2-aminoethoxydiphenyl borate]	significantly increased	2.0	inward current	outward current	–	–	–	–	–
N.N.N.N.N.N.N.N.N.N.N.N.N.N.[Cl-].[Cl-].[Cl-].[Cl-].[Cl-].[Cl-].[O-2].[O-2].[Ru+3].[Ru+3].[Ru+4] [ruthenium red]	–	–	–	–	blocked	blocked	blocked	blocked	blocked
